Measured values taken from the NIST ThermoML archive (doi:10.1021/je200697m).
Numbers after ± are expanded uncertainties.

Settings: Liquid

vapor or sublimation pressure (337.84 K) [kPa] | vapor or sublimation pressure (363.41 K) [kPa] | SMILES
101.32 ± 1.7 | – | CO [methanol]
– | 101.32 ± 1.7 | COC(=O)OC [dimethyl carbonate]
